{"source": "patent EP0060776B1", "about": "“Medicaments for the treatment of obesity and hyperlipoidemia” (SOMACHIM S.A., priority 1981, dated 1982)", "key": {"[1]": {"assay": "Weight gain of genetically obese and normal Zucker rats, daily gavage for 4 weeks", "format": "in vivo, rattes Zucker", "excerpt": "On a notamment étudié les effets de l'acide 3,5-diiodo-3'-isopropyl-thyroacétique sur la prise de poids de la ratte génétiquement obèse, par administration au moyen d'une sonde oesophagienne et en comparaison avec des rattes normales.\n(§1) Les animaux employés sont des rattes Zucker âgées de 7 à 8 semaines au début de l'expérimentation. Les animaux ont été placés en cages individuelles et recevaient ad libitum une alimentation équilibrée et vitaminée spéciale pour rats, identique pour tous les lots. La boisson était également présentée ad libitum. Les lots d'animaux ont été établis de telle sorte que le poids-de départ soit sensiblement identique pour les témoins et les traités, chaque lot comporte 6 animaux.\n(§2) On a administré une dose journalière de 17,5 µg (30n mol) par 100 g. de poids corporel pendant 4 semaines. Les poids moyens des animaux traités et non traités ont été notés chaque fin de semaine chez les témoins et chez les obèses. Les résultats sont rassemblés dans le tableau ci-dessous."}, "[2]": {"assay": "Weekly food consumption of genetically obese and normal Zucker rats", "format": "in vivo, rattes Zucker", "set-up": "Consommation d'aliments: unit not given here", "details": "for Consommation d'aliments: weekly, treated", "excerpt": "as §1, §2\nPar ailleurs, la consommation hebdomadaire d'aliments a été notée et les résultats rassemblés dans le tableau ci-dessus.\nEnfin le tableau suivant rassemble pour chaque semaine l'observation du rapport : • R = (consommation hebdomadaire (CH))/(gain de poids hebdomadaire (GPH)) [formula]"}, "[3]": {"assay": "Blood cholesterol of the treated Zucker rats", "format": "in vivo, rattes Zucker", "excerpt": "as §1, §2\nLa cholestérolémie a été dosée chez les animaux dont les courbes pondérales et de consommation alimentaire ont été rapportées ci-dessus. Les résultats sont les suivants : • Rats normaux non traités 0,9-1 g par litre (2,5 mmol par l.) • Rats normaux traités (4 semaines) 0,9-1 g par litre (2,5 mmol par 1.) • Rats génétiquement obèses non traités • 1,7-1,8 (X = 1,75) g par litre (4,51 mmol par litre) • Rats génétiquement obèses traités (4 semaines) • 1,1 g par litre (2,87 mmol par litre)"}, "[4]": {"assay": "Acute oral toxicity (DL50) in the rat", "details": "in vivo", "excerpt": "La toxicité de l'acide 3,5-diiodo-3'-isopropyt-thyroacétique a également été examinée sur le rat."}, "[5]": {"assay": "30-day repeated-dose toxicity in rats at 1/5 of the DL50", "format": "in vivo", "excerpt": "Par ailleurs, le 1/5 de la dose L 50 a été administré à 20 rats durant 30 jours, 7 jours sur 7. Aucune mort n'a été constatée. […] La formule sanguine est normale."}, "[6]": {"assay": "Magnusson and Kligman sensitisation test", "format": "in vivo, cobaye", "details": "guinea pig", "excerpt": "De plus, un test de Manusson et Kligman a été pratiqué chez le cobaye. Ce test prédictif s'est révélé négatif, c'est-à-dire qu'aucun animal n'a montré une quelconque sensibilisation d'ordre allergique au produit."}, "[7]": {"assay": "5-day tolerance study in obese human volunteers", "format": "in vivo, homme", "details": "5 obese volunteers, 0,3 mg daily in 3 oral doses, 5 days", "experimental": "On a administré à un groupe de 5 volontaires obèses une dose journalière de 0,3 mg d'acide 3,5- dilodo-3'-isopropylthyroacétique en 3 prises orales, durant une première période de 5 jours durant lesquels la tolérance fut vérifiée."}, "Patch tests in humans": {"assay": "Patch tests in humans", "format": "in vivo, homme", "details": "human"}, "[8]": {"assay": "4-week oral treatment of hospitalised obese patients", "format": "in vivo, homme", "details": "for POIDS Après (J+30): 0,3 mg daily orally, 1 400 cal/j diet", "experimental": "Après cet essai d'autres volontaires obèses ont été traités par l'acide 3,5-dilodo-3'-isopropyl- thyroacétique à la dose journalière de 0,3 mg en 2 prises orales durant 4 semaines. La tolérance fut surveillée très attentivement (malades hospitalisés) et fut parfaite.\nLe poids des 6 patients obèses hospitalisés sous régime hypocalorique, hypoglucidique, hyperproti- dique à 1 400 cal/j et traités comme il est indiqué ci-dessus a régressé. Le tableau ci-après rassemble les résultats obtenus."}, "[9]": {"details": "6 obese patients, 0,3 mg daily, 4 weeks"}}, "data": [{"smiles": "CC(C)c1cc(Oc2c(I)cc(CC(=O)O)cc2I)ccc1O", "note": "[acide 3,5-diiodo-3'-isopropyl-thyroacétique]", "values": [{"measurement": "Poids moyens", "setting": "[1]; genetically obese Zucker rats (Obèses), treated, 17,5 µg per 100 g daily, day 7, initial mean weight 135 g", "result": 148, "unit": "g"}, {"measurement": "Poids moyens", "setting": "[1]; genetically obese Zucker rats (Obèses), treated, 17,5 µg per 100 g daily, day 14, initial mean weight 135 g", "result": 168, "unit": "g"}, {"measurement": "Poids moyens", "setting": "[1]; genetically obese Zucker rats (Obèses), treated, 17,5 µg per 100 g daily, day 21, initial mean weight 135 g", "result": 190, "unit": "g"}, {"measurement": "Poids moyens", "setting": "[1]; genetically obese Zucker rats (Obèses), treated, 17,5 µg per 100 g daily, day 28, initial mean weight 135 g", "result": 206, "unit": "g"}, {"measurement": "prise de poids", "setting": "[1]; genetically obese Zucker rats, 17,5 µg per 100 g body weight", "result": "ralentit la prise de poids"}, {"measurement": "Poids moyens", "setting": "[1]; normal Zucker rats (Témoins), treated, 17,5 µg per 100 g body weight daily by gavage, day 7, initial mean weight 102 g", "result": 119, "unit": "g"}, {"measurement": "Poids moyens", "setting": "[1]; normal Zucker rats (Témoins), treated, 17,5 µg per 100 g daily, day 14, initial mean weight 102 g", "result": 137, "unit": "g"}, {"measurement": "Poids moyens", "setting": "[1]; normal Zucker rats (Témoins), treated, 17,5 µg per 100 g daily, day 21, initial mean weight 102 g", "result": 152, "unit": "g"}, {"measurement": "Poids moyens", "setting": "[1]; normal Zucker rats (Témoins), treated, 17,5 µg per 100 g daily, day 28, initial mean weight 102 g", "result": 163, "unit": "g"}, {"measurement": "croissance", "setting": "[1]; normal Zucker rats, 17,5 µg per 100 g body weight", "result": "ne modifie pas significativement la croissance"}, {"measurement": "consommation alimentaire", "setting": "[2]; normal animals", "result": "ne modifie pas la consommation alimentaire"}, {"measurement": "consommation alimentaire", "setting": "[2]; obese animals", "result": "réduit celle des animaux obèses"}, {"measurement": "effet anorexigène", "setting": "[2]; rat, concluded from the ratio weekly consumption / weekly weight gain", "result": "aucun effet anorexigène"}, {"measurement": "Consommation d'aliments", "setting": "[2]; normal Zucker rats (Témoins), day 7, initial mean consumption 78", "result": 83}, {"measurement": "Consommation d'aliments", "setting": "[2]; normal Zucker rats (Témoins), day 14, initial mean consumption 78", "result": 112}, {"measurement": "Consommation d'aliments", "setting": "[2]; normal Zucker rats (Témoins), day 21, initial mean consumption 78", "result": 120}, {"measurement": "Consommation d'aliments", "setting": "[2]; normal Zucker rats (Témoins), day 28, initial mean consumption 78", "result": 118}, {"measurement": "Consommation d'aliments", "setting": "[2]; obese Zucker rats (Obèses), day 7, initial mean consumption 118", "result": 124}, {"measurement": "Consommation d'aliments", "setting": "[2]; obese Zucker rats (Obèses), day 14, initial mean consumption 118", "result": 131}, {"measurement": "Consommation d'aliments", "setting": "[2]; obese Zucker rats (Obèses), day 21, initial mean consumption 118", "result": 148}, {"measurement": "Consommation d'aliments", "setting": "[2]; obese Zucker rats (Obèses), day 28, initial mean consumption 118", "result": 142}, {"measurement": "taux de cholestérol", "setting": "[3]; animals with normal cholesterol level", "result": "n'a pas d'effet"}, {"measurement": "cholestérolémie", "setting": "[3]; genetically obese rats treated 4 weeks, untreated obese rats 1,7-1,8", "result": "1,1 g par litre"}, {"measurement": "cholestérolémie", "setting": "[3]; genetically obese rats treated 4 weeks, untreated obese rats 4,51", "result": "2,87 mmol par litre"}, {"measurement": "taux de cholestérol", "setting": "[3]; hypercholesterolemic animals", "result": "baisser sensiblement"}, {"measurement": "cholestérolémie", "setting": "[3]; normal rats treated 4 weeks, untreated normal rats 0,9-1", "result": "0,9-1 g par litre"}, {"measurement": "cholestérolémie", "setting": "[3]; normal rats treated 4 weeks, untreated normal rats 2,5", "result": "2,5 mmol par 1."}, {"measurement": "observation of behaviour and growth", "setting": "[4]", "result": "aucun trouble de comportement ni de croissance"}, {"measurement": "LD50 at 336 h", "setting": "[4]; po, solution by oesophageal tube, 12 animals", "result": 5.4, "unit": "mg/kg"}, {"measurement": "mortality", "setting": "[5]; 20 rats, 1/5 of the DL50 daily for 30 days", "result": "Aucune mort"}, {"measurement": "autopsy, macroscopic state of the organs", "setting": "[5]; rat, in vivo", "result": "aucun organe n'était macroscopiquement modifié à l'exception d'une légère pâleur des thyroïdes"}, {"measurement": "composantes biochimiques principales, glycémie, uricémie, urémie", "setting": "[5]; rat, in vivo", "result": "évoluent dans les limites habituelles à l'espèce"}, {"measurement": "formule sanguine", "setting": "[5]; rat, in vivo", "result": "normale"}, {"measurement": "histologie du foie, rate, rein, thyroïde, surénales", "setting": "[5]; rat, in vivo", "result": "n'a rien révélé d'anormal"}, {"measurement": "sensibilisation d'ordre allergique", "setting": "[6]", "result": "négatif"}, {"measurement": "tolérance: tension artérielle, rythme cardiaque, transaminases et phosphatases, glucose, urée sanguine, créatinine urinaire", "setting": "[7]", "result": "aucun paramètre n'a subi de modification"}, {"measurement": "patchtests", "setting": "Patch tests in humans", "result": "n'était pas allergogène"}, {"measurement": "taux de cholestérol sanguin", "setting": "[8]; [9]", "result": "notablement été abaissé"}, {"measurement": "transaminases, phosphatases, uricémie, créatinurie", "setting": "[8]; [9]", "result": "aucune modification"}, {"measurement": "glycémie", "setting": "[8]; 6 obese patients, 4 weeks, the patent attributes the effect probably to the diet", "result": "a diminué également de manière significative"}, {"measurement": "poids", "setting": "[8]; obese humans, statement in words", "result": "baisse de poids très substantielle"}, {"measurement": "POIDS Après (J+30)", "setting": "[8]; obese patient 1, before (J-0) 115", "result": 107}, {"measurement": "POIDS Après (J+30)", "setting": "[8]; obese patient 2, before (J-0) 108", "result": 101}, {"measurement": "POIDS Après (J+30)", "setting": "[8]; obese patient 3, before (J-0) 97", "result": 89}, {"measurement": "POIDS Après (J+30)", "setting": "[8]; obese patient 4, before (J-0) 103", "result": 93}, {"measurement": "POIDS Après (J+30)", "setting": "[8]; obese patient 5, before (J-0) 85", "result": 81}, {"measurement": "POIDS Après (J+30)", "setting": "[8]; obese patient 6, before (J-0) 111", "result": 104}, {"measurement": "tolérance", "setting": "[8]; obese volunteers, hospitalised, 0,3 mg daily in 2 oral doses, 4 weeks", "result": "parfaite"}]}]}
